Data published in article PMC2904697, “A Screen for Kinetochore-Microtubule Interaction Inhibitors Identifies Novel Antitubulin Compounds” (PLoS ONE, 2010).

What was measured:
HeLa cells = assay: Ability of the compound to enter cells; format: cell-based, human
From the text: During the last twenty-five years antispindle drugs have been used with great success in the fight against cancer. However, as cancer cells are developing resistance against these drugs, there is an urgent need for compounds targeting alternative mitotic targets. As kinetochores orchestrate chromosome segregation and comprise >100 proteins, they are appealing mitosis-specific drug targets. The high antitumor activity of compounds inhibiting kinetochore regulators (Aurora kinase, PLK1) and the kinetochore-associated kinesin CENP-E supports the concept of targeting kinetochore function to eradicate proliferating cells, [9], [19]. The complexity of kinetochores, the lack of insight into intrakinetochore protein-protein contacts and protein-activity relationships, as well as the difficulty to produce kinetochore subunits in large quantities for use in in vitro screens has long hampered the conversion of structural kinetochore components into anticancer drug targets. […] As the Ndc80 complex can be produced recombinantly in high quantity and because the recombinant complex is fully active as shown following injection in cells we focused on this complex to screen for inhibitors of kinetochore-MT binding. […]

[1] = tested on: recombinant CLIP-170^488 binding to taxol-stabilized MTs; assay: CLIP-170^488 binding to taxol-stabilized MTs (specificity control); settings: compound B at 50 µmol/l
From the text: Figure 2 Compound B prevents the recombinant Ndc80 kinetochore complex from binding to taxol-stabilized microtubules. Effect of compound B (50 µmol/l) on binding of the Ndc80^488 complex to rhodamine-labeled, taxol-stabilized MTs as assayed using inverted wide-field fluorescence microscopy. The scale bar represents 4 µm (A). Structure of compound B; 6-furan-2-yl-3-methyl-4-oxo-4,5,6,7-tetrahydro-1H-indole-2-carboxylic acid (tetrahydro-furan-2-yl)methyl ester (B). Measurement of the IC50 value of compound B using total internal reflection fluorescence microscopy. The scale bar represents 4 µm (C). Compound B (50 µmol/l) prevented MT-associating protein CLIP-170^488, used as a specificity control, from binding to taxol-stabilized MTs. The scale bar represents 4 µm (D). […] The scale bar represents 4 µm (E).
A compound inhibiting the Ndc80^488 complex-MT interaction could act either against the complex or against the MTs. To probe the specificity of compound B toward the Ndc80^488 complex, we examined its ability to inhibit MT binding of recombinant CLIP-170^488, a MT plus-end tracking protein.

Q: For `N#CC(=Cc1ccc(-c2ccc(C(=O)O)cc2)o1)c1nc2ccccc2[nH]1` [compound C, 4-5-2-1H-benzimidazol-2-yl-2-cyano-vinyl-furan-2-yl-benzoic acid], which Cell entry (HeLa cells) is on record?
A: inability of the compound to enter cells

Q: What about the “Effect on binding of CLIP-170^488 to taxol-stabilized MTs” value [1] of the same compound?
A: did not inhibit
